# Results as given in PMC4474554 (PLoS ONE, 2015).
# Several values for one entry are separate records, joined by “and”; a condition that tells them apart may be missing. Equal values may be shown once. Read-outs that look alike come from different tables or passages of the source.
# Assays:
# FAK = test system: FAK; set-up: method as in earlier work; conditions: updated data; cited from earlier work
# Lck = test system: Lck; set-up: method as in earlier work; conditions: updated data; cited from earlier work
# ZAP-70 = test system: ZAP-70; set-up: method as in earlier work; conditions: updated data; cited from earlier work
# PDGFR = test system: PDGFR; set-up: method as in earlier work; conditions: updated data; cited from earlier work
# PDK1 = test system: PDK1; set-up: method as in earlier work; conditions: updated data; cited from earlier work
# PC-9 = test: MTS assay, PC-9
# RPC-9 = test: MTS assay, RPC-9
# NCI-H1648 = test: MTS assay, NCI-H1648
compound,measurement,setting,value
CNC(=O)c1ccccc1Nc1nc(Nc2ccc(N3CCOCC3)cc2OC)ncc1Cl [TAE226],IC50,FAK,0.0055 µM
same,IC50,ZAP-70,7.7 µM
same,IC50,PDGFR,2.6 µM
same,IC50,PDK1,> 10 µM
same,IC50,"PC-9; read-out: IC50 (μM) (mean ± SD), PC-9, EGFR Exon 19 del (E746-A750), MTS, TAE226 48 hours, gefitinib 72 hours",0.16 ± 0.01 µM
same,IC50,"PC-9; read-out: mean IC50, PC-9, mean of independent MTS assays",0.16 µM
same,IC50,"RPC-9; read-out: IC50 (μM) (mean ± SD), RPC-9, EGFR Exon 19 del (E746-A750) + T790M, MTS, TAE226 48 hours, gefitinib 72 hours",0.31 ± 0.03 µM
same,IC50,"RPC-9; read-out: each IC50, RPC-9, independent MTS assays",0.35 µM and 0.33 µM and 0.28 µM and 0.27 µM
same,IC50,"NCI-H1648; read-out: IC50 (μM) (mean ± SD), NCI-H1648, HER2 amplification, MTS, TAE226 48 hours, gefitinib 72 hours",1.7 ± 0.07 µM
same,IC50,"NCI-H1648; read-out: each IC50, NCI-H1648, independent MTS assays",1.7 µM and 1.8 µM
same,IC50,"NCI-H1648; read-out: mean IC50, NCI-H1648, mean of independent MTS assays",1.7 µM
